Reference: patent publication US20250129430A1, “HIGH ATP-AFFINITY PROTEIN AS THERAPEUTIC TARGET FOR INTRACTABLE CANCER MOLECULAR SUBTYPES AND INHIBITOR THEREOF” (VeraVerse Co., Ltd., priority 2021, published 2025)
Where two headings read alike, the source gives them in different places.

Assays:
Assay type in all cases: cell-based, human
SNU1967 = assay: Cell viability drug screen, 12-point dose-response AUC
Outline: (§1)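 Viability: luminescence (Glo kit, 15 min RT), normalized to 0.5% DMSO vehicle. Dosing: half-log, 12 concentrations, 72 h. Cells: 5×10^3/well, treated 24 h after plating. Value: trapezoidal AUC, mean of repeats.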

SNU620 = assay: as above
Outline: as §1

SNU638 = assay: as above
Outline: as §1

KATO3 = assay: as above
Outline: as §1

MKN45 = assay: as above
Outline: as §1

SNU601 = assay: as above
Outline: as §1

MKN74 = assay: as above
Outline: as §1

SNU1750 = assay: as above
Outline: as §1

MKN1 = assay: as above
Outline: as §1

NCC19 = assay: as above
Outline: as §1

SNU668 = assay: as above
Outline: as §1

SNU484 = assay: as above
Outline: as §1

MKN28 = assay: as above
Outline: as §1

YCC11 = assay: as above
Outline: as §1

NCC24 = assay: as above
Outline: as §1

AGS = assay: as above
Outline: as §1

SNU1 = assay: as above
Outline: as §1

NCC20 = assay: as above
Outline: as §1

YCC2 = assay: as above
Outline: as §1

OCUM1 = assay: as above
Outline: as §1

SK4 = assay: as above
Outline: as §1

SNU719 = assay: as above
Outline: as §1

NCI_N87 = assay: as above
Outline: as §1

NCC59 = assay: as above
Outline: as §1

SNU16 = assay: as above
Outline: as §1

SNU216 = assay: as above
Outline: as §1

Hs746T = assay: as above
Outline: as §1

YCC3 = assay: as above
Outline: as §1

[1] = test system: non-SEM-type gastric cancer cell line; assay: Cell viability drug screen, AUC summary over non-SEM-type lines; conditions: in the non-SEM-type gastric cancer cell line
FU97 = assay: Cell viability drug screen, 12-point dose-response AUC; parameters: Average Area Under the Viability Curve (AUC), AUC norm value: scale not given here
Outline: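 Trapezoidal AUC of a 12-point, DMSO-normalized dose-response curve. Luminescent viability was measured after 72 h of exposure at 37° C to half-log serial dilutions (0.5% DMSO control), dosed 24 h after plating FU97 cells at 5×10^3 per well.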

Structure (SMILES): CN(C)c1ccc(C(=C2C=CC(=[N+](C)C)C=C2)c2ccc(N(C)C)cc2)cc1 [Crystal Violet, Crystal violet]
- area under the viability curve (AUC), normalized (SNU1967; SNU1967 cells, 72 hours, 12-point dose-response): 0.3458
- area under the viability curve (AUC), normalized (SNU620; SNU620 cells, 72 hours, 12-point dose-response): −0.7672
- area under the viability curve (AUC), normalized (SNU638; SNU638 cells, 72 hours, 12-point dose-response): −0.4956
- area under the viability curve (AUC), normalized (KATO3; KATO3 cells, 72 hours, 12-point dose-response): 0.911
- area under the viability curve (AUC), normalized (MKN45; MKN45 cells, 72 hours, 12-point dose-response): 1.101
- area under the viability curve (AUC), normalized (SNU601; SNU601 cells, 72 hours, 12-point dose-response): 0.9442
- area under the viability curve (AUC), normalized (MKN74; MKN74 cells, 72 hours, 12-point dose-response): −0.5721
- area under the viability curve (AUC), normalized (SNU1750; SNU1750 cells, 72 hours, 12-point dose-response): −0.5514
- area under the viability curve (AUC), normalized (MKN1; MKN1 cells, 72 hours, 12-point dose-response): 0.4211
- area under the viability curve (AUC), normalized (NCC19; NCC19 cells, 72 hours, 12-point dose-response): 0.4873
- area under the viability curve (AUC), normalized (SNU668; SNU668 cells, 72 hours, 12-point dose-response): 0.1937
- area under the viability curve (AUC), normalized (SNU484; SNU484 cells, 72 hours, 12-point dose-response): −0.7108
- area under the viability curve (AUC), normalized (MKN28; MKN28 cells, 72 hours, 12-point dose-response): 0
- area under the viability curve (AUC), normalized (YCC11; YCC11 cells, 72 hours, 12-point dose-response): −0.8996
- area under the viability curve (AUC), normalized (NCC24; NCC24 cells, 72 hours, 12-point dose-response): 0.2743
- area under the viability curve (AUC), normalized (AGS; AGS cells, 72 hours, 12-point dose-response): −0.4769
- area under the viability curve (AUC), normalized (SNU1; SNU1 cells, 72 hours, 12-point dose-response): −0.5355
- area under the viability curve (AUC), normalized (NCC20; NCC20 cells, 72 hours, 12-point dose-response): −1.031
- area under the viability curve (AUC), normalized (YCC2; YCC2 cells, 72 hours, 12-point dose-response): 0.4289
- area under the viability curve (AUC), normalized (OCUM1; OCUM1 cells, 72 hours, 12-point dose-response): 0.7741
- area under the viability curve (AUC), normalized (SK4; SK4 cells, 72 hours, 12-point dose-response): −1.015
- area under the viability curve (AUC), normalized (SNU719; SNU719 cells, 72 hours, 12-point dose-response): 3.076
- area under the viability curve (AUC), normalized (NCI_N87; NCI_N87 cells, 72 hours, 12-point dose-response): 0.4907
- area under the viability curve (AUC), normalized (NCC59; NCC59 cells, 72 hours, 12-point dose-response): 0.5098
- area under the viability curve (AUC), normalized (SNU16; SNU16 cells, 72 hours, 12-point dose-response): −0.5668
- area under the viability curve (AUC), normalized (SNU216; SNU216 cells, 72 hours, 12-point dose-response): −0.02818
- area under the viability curve (AUC), normalized (Hs746T; Hs746T cells, 72 hours, 12-point dose-response): −0.2085
- area under the viability curve (AUC), normalized (YCC3; YCC3 cells, 72 hours, 12-point dose-response): 0.9437
- AUC value [1]: high
- area under the viability curve (AUC), normalized (FU97; FU97 cells, 72 hours, 12-point dose-response): −0.985

Structure (SMILES): c1ccc2c(-c3cnn4cc(-c5ccc(N6CCNCC6)cc5)cnc34)ccnc2c1 [LDN193189]
- Average Area Under the Viability Curve (AUC), AUC norm value (SNU1967; SNU1967 cells, 72 hours): −1.419
- Average Area Under the Viability Curve (AUC), AUC norm value (SNU620; SNU620 cells, 72 hours): −2.131
- Average Area Under the Viability Curve (AUC), AUC norm value (SNU638; SNU638 cells, 72 hours): −0.9699
- Average Area Under the Viability Curve (AUC), AUC norm value (KATO3; KATO3 cells, 72 hours): 0.6205
- Average Area Under the Viability Curve (AUC), AUC norm value (MKN45; MKN45 cells (non-SEM subtype), 72 hours): 0.9516
- Average Area Under the Viability Curve (AUC), AUC norm value (SNU601; SNU601 cells, 72 hours): 3.699
- Average Area Under the Viability Curve (AUC), AUC norm value (MKN74; MKN74 cells, 72 hours): −1.246
- Average Area Under the Viability Curve (AUC), AUC norm value (SNU1750; SNU1750 cells (SEM subtype), 72 hours): −0.4695
- Average Area Under the Viability Curve (AUC), AUC norm value (MKN1; MKN1 cells, 72 hours): 0
- Average Area Under the Viability Curve (AUC), AUC norm value (NCC19; NCC19 cells, 72 hours): 0.06094
- Average Area Under the Viability Curve (AUC), AUC norm value (SNU668; SNU668 cells (SEM subtype), 72 hours): 0.06394
- Average Area Under the Viability Curve (AUC), AUC norm value (SNU484; SNU484 cells (SEM subtype), 72 hours): −0.5999
- Average Area Under the Viability Curve (AUC), AUC norm value (MKN28; MKN28 cells, 72 hours): 0.5758
- Average Area Under the Viability Curve (AUC), AUC norm value (YCC11; YCC11 cells (SEM subtype), 72 hours): −0.7359
- Average Area Under the Viability Curve (AUC), AUC norm value (NCC24; NCC24 cells, 72 hours): −0.1464
- Average Area Under the Viability Curve (AUC), AUC norm value (AGS; AGS cells (non-SEM subtype), 72 hours): −0.1896
- Average Area Under the Viability Curve (AUC), AUC norm value (SNU1; SNU1 cells, 72 hours): 0.8706
- Average Area Under the Viability Curve (AUC), AUC norm value (NCC20; NCC20 cells, 72 hours): 0.02059
- Average Area Under the Viability Curve (AUC), AUC norm value (YCC2; YCC2 cells, 72 hours): 0.1163
- Average Area Under the Viability Curve (AUC), AUC norm value (OCUM1; OCUM1 cells, 72 hours): −1.113
- Average Area Under the Viability Curve (AUC), AUC norm value (SK4; SK4 cells (SEM subtype), 72 hours): −0.5339
- Average Area Under the Viability Curve (AUC), AUC norm value (SNU719; SNU719 cells, 72 hours): 0.6043
- Average Area Under the Viability Curve (AUC), AUC norm value (NCI_N87; NCI_N87 cells, 72 hours): 1.172
- Average Area Under the Viability Curve (AUC), AUC norm value (NCC59; NCC59 cells, 72 hours): 1.892
- Average Area Under the Viability Curve (AUC), AUC norm value (SNU16; SNU16 cells, 72 hours): 1.525
- Average Area Under the Viability Curve (AUC), AUC norm value (SNU216; SNU216 cells (non-SEM subtype), 72 hours): −0.7838
- Average Area Under the Viability Curve (AUC), AUC norm value (Hs746T; Hs746T cells (SEM subtype), 72 hours): −0.2954
- Average Area Under the Viability Curve (AUC), AUC norm value (YCC3; YCC3 cells, 72 hours): 0.08342
- AUC value [1]: high
- Average Area Under the Viability Curve (AUC), AUC norm value (FU97; FU97 cells, 72 hours): −0.1434

Structure (SMILES): [O-][n+]1ccccc1[S-].[O-][n+]1ccccc1[S-].[Zn+2] [PYRITHIONE ZINC, Pyrithione zinc]
- area under the viability curve (AUC), normalized (SNU1967): −0.5027
- area under the viability curve (AUC), normalized (SNU620): −0.7817
- area under the viability curve (AUC), normalized (SNU638): −0.08685
- area under the viability curve (AUC), normalized (KATO3): 0.8219
- area under the viability curve (AUC), normalized (MKN45): −1.0871
- area under the viability curve (AUC), normalized (SNU601): 2.666
- area under the viability curve (AUC), normalized (MKN74): −1.149
- area under the viability curve (AUC), normalized (SNU1750): 0.1011
- area under the viability curve (AUC), normalized (MKN1): −0.4913
- area under the viability curve (AUC), normalized (NCC19): 0.7336
- area under the viability curve (AUC), normalized (SNU668): 0.7681
- area under the viability curve (AUC), normalized (SNU484): −0.9287
- area under the viability curve (AUC), normalized (MKN28): 0.1421
- area under the viability curve (AUC), normalized (YCC11): −1.337
- area under the viability curve (AUC), normalized (NCC24): −0.309
- area under the viability curve (AUC), normalized (AGS): −0.9355
- area under the viability curve (AUC), normalized (SNU1): 1.431
- area under the viability curve (AUC), normalized (NCC20): −0.7838
- area under the viability curve (AUC), normalized (YCC2): −0.08387
- area under the viability curve (AUC), normalized (OCUM1): 0.5355
- area under the viability curve (AUC), normalized (SK4): 0
- area under the viability curve (AUC), normalized (SNU719): 1.547
- area under the viability curve (AUC), normalized (NCI_N87): 1.161
- area under the viability curve (AUC), normalized (NCC59): 0.7288
- area under the viability curve (AUC), normalized (SNU16): 1.28
- area under the viability curve (AUC), normalized (SNU216): −0.2272
- area under the viability curve (AUC), normalized (Hs746T): −0.541
- area under the viability curve (AUC), normalized (YCC3): 0.6512
- AUC value [1]: high
- area under the viability curve (AUC), normalized (FU97): 0.3344
